The structures appear in SMILES notation. pEC50: −log10 of the molar value. Where a name gives a salt, the structure may show the parent alone. Read-outs that look alike come from different tables or passages of the source.

Data on six molecules can be found in patent publication US20200071310A1, “N-ARYL PYRAZOLES AS NRF2 REGULATORS” (GLAXOSMITHKLINE INTELLECTUAL PROPERTY DEVELOPMENT LIMITED, priority 2016, published 2020).

In assay [1] the test system is histologic abnormalities, especially hepatic fibrosis. The settings on record: rats on a choline-deficient L-amino acid-defined diet; cited from earlier work.
Assay [2] deals with COPD macrophages and alveolar macrophages from cigarette smoke-exposed mice. The note with it: cited from earlier work.
Assay [3] has as its system cortical glutathione levels. The note with it: NRF2 wild-type but not KO mice; cited from earlier work.
In assay [4] the test system is cortical damage. The note with it: rats, cerebral ischemia-reperfusion model; cited from earlier work.
The subject of assay [5] is NQO1 specific enzyme activity in BEAS-2B cells. Description: BEAS-2B NQO1 MTT Assay. Format: cell-based. The settings on record: NQO1 specific activity induction, BEAS-2B cells, 48 hours, read-out: EC50. The text has this: NAD(P)H:quinone oxidoreductase 1 (NQO1), also called DT diaphorase, is a homodimeric FAD-containing enzyme that catalyzes obligatory NAD(P)H-dependent two-electron reductions of quinones and protects cells against the toxic and neoplastic effects of free radicals and reactive oxygen species arising from one-electron reductions. The transcription of NQO1 is finely regulated by NRF2, and thus NQO1 activity is a good marker for NRF2 activation. On day one, frozen BEAS-2B cells (ATCC) were thawed in a water bath, counted, and re-suspended at a concentration of 250,000 cells/mL. Fifty microliters of cells were plated in 384 well black clear-bottomed plates. Plates were incubated at 37° C., 5% CO2 overnight. On day two, plates were centrifuged and 50 nL of compound or controls were added to the cells. Plates were then incubated at 37° C., 5% CO2 for 48 hours. On day four, medium was aspirated from the plate and crude cell lysates were made by adding 13 uL of 1× Cell Signaling Technologies lysis buffer with 1 Complete, Mini, EDTA-free Protease Inhibitor Tablet (Roche) for each 10 mL of lysis buffer. After lysis plates were incubated for 20 minutes at room temperature. Two microliters of lysate were removed for use in Cell Titer Glo assay (Promega) and MTT cocktail was prepared (Prochaska et. al. 1998) for measurement of NQO1 activity. Fifty microliters of MTT cocktail is added to each well, plate is centrifuged, and analyzed on an Envision plate reader (Perkin Elmer) using Absorbance 570 nm label for 30 minutes. Product formation was measured kinetically and the pEC50 of NQO1 specific activity induction was calculated by plotting the change in absorbance (Delta OD/min) versus the log of compound concentration followed by 3-parameter fitting. pEC50 is the negative log of the EC50.

Consider `Cc1c(-c2cnccn2)ssc1=S` [oltipraz], for which the “progression of histologic abnormalities, especially hepatic fibrosis” value in assay [1] is “significantly attenuated”.

For `C[S+]([O-])CCCCN=C=S` (centres unmarked) [Sulforaphane], the “expression of Macrophage Receptor with Collagenous structure (MARCO)” value in assay [2] (COPD macrophages and alveolar macrophages from cigarette smoke-exposed mice) was “increases”. Besides, the “bacterial phagocytosis (Pseudomonas aeruginosa, non-typable Haemophilus influenzae) and bacterial clearance” value in assay [2] (ex vivo and in vivo) was “improving”.

On to `O=C(NCc1ccccn1)Nc1nnc(-c2ccco2)o1` [NK-252], for which the “progression of histologic abnormalities, especially hepatic fibrosis” value in assay [1] is recorded as “significantly attenuated”.

Take `CC(C)(C)c1cc(O)ccc1O` [tert-butylhydroquinone]: the cortical glutathione levels entry in assay [3] is given as “increased in NRF2 wild-type but not KO mice”. Also, the cortical damage entry in assay [4] is “reduced cortical damage”.

What is called pEC50 is the EC50 on a negative log10 scale, so that one unit is a factor of ten. In the case of `C[C@H]1Cc2ccc(C(F)(F)F)cc2S(=O)(=O)N([C@@H]2CCc3c2cccc3-n2ncc(C(=O)O)c2[C@@H]2C[C@H]2c2cn(C)nn2)C1` [Example 26b, 1-((R)-1-((S)-4-Methyl-1,1-dioxido-8-(trifluoromethyl)-4,5-dihydrobenzo[f][1,2]thiazepin-2(3H)-yl)-2,3-dihydro-1H-inden-4-yl)-5-((1R,2R)-2-(1-methyl-1H-1,2,3-triazol-4-yl)cyclopropyl)-1H-pyrazole-4-carboxylic acid], the pEC50 in assay [5] (Homo sapiens) is 5.00 to 6.00.

Take `CCOc1ccc(Br)cc1CN(Cc1cccc(-n2ncc(C(=O)O)c2[C@@H]2C[C@H]2c2cn(C)nn2)c1)C1CC1` (relative stereo) [Example 55, 1-(3-(((5-bromo-2-ethoxybenzyl)cyclo-propyl)amino)methyl)phenyl)-5-((trans)-2-(1-methyl-1H-1,2,3-triazol-4-yl)cyclopropyl)-1H-pyrazole-4-carboxylic acid trifluoroacetate]: the pEC50 in assay [5] is 6.00 to 7.00.
